For 2 compounds, IC50 and inhibition results are on record in patent US9795601B2, “Compositions and methods for cancer treatment” (BIOVISTA, INC., priority 2010, dated 2017).

Common to all, as to format: cell-based
Test [1] concerns HT-144 (Melanoma). Description: Cancer cell lines assay (Alamar Blue, day 5), HT-144. The note with it: Homo sapiens. On the procedure:
(§1) EXAMPLE. Cancer cell lines assay. Compounds are assayed for IC50 over a range of 50 nM to 1 mM, in triplicate, in standard 96-well plates. Initially, the number of cells in each line to plate on day 0 is determined, in order to have <80% confluency on day 5. Cells are plated on day 0. Cells are allowed to adhere 4 hours prior to adding the compound. On day 5 Alamar Blue is added to the media of the cells at 10% of the total volume of the well and incubated for approximately 4 hours at tissue culture conditions. The Alamar Blue reagent consists of an oxidation-reduction indicator that yields a colorimetric change and a fluorescent signal in response to metabolic activity. The dose response curves is evaluated in a BioTek Synergy 2 plate reader. The readout fluorescence values are then be exported to spreedsheet software, such as Microsoft Excel or GraphPad, and are graphed to show the reduction in relative cell number in response to compounds added to culture. Maximum inhibition is expressed as the maximum of:
(§2) [formula] over all dosages tested for each drug.
(§3) EXAMPLE. Linezolid is diluted in DMSO. One vial is thawed and administered on day 0, at concentrations 10 μM to 1 mM. Paclitaxel (0.1 μM) is used as a positive control. DMSO alone is used as a negative control. On day 5 Alamar Blue is added to the media of the cells at 10% of the total volume of the well and incubated for approximately 4 hours at tissue culture conditions.
(The colour change of resazurin is a common sign of viable cells or microbes.)

Test [2] concerns SW-579 (Thyroid Cancer). Kind of test: Cancer cell lines assay (Alamar Blue, day 5), SW-579. The note with it: SW579; SW-579 cells, Linezolid concentration 412 μM, negative control DMSO, p 0.0490; read-out: Linezolid % Maximum inhibition relative to negative control. On the procedure:
as §1, §2
(§4) EXAMPLE. Linezolid is diluted in DMSO. One vial is thawed and administered on day 0, at concentrations 10 μM to 1 mM. Paclitaxel (0.1 μM) is used as a positive control. DMSO alone is used as a negative control. […]

In test [3] the test system is A172 (Malignant glioma). Description: Cancer cell lines assay (Alamar Blue, day 5), A172. The note with it: Homo sapiens. On the procedure:
as §1, §2, §3

In test [4] the test system is C32 (Melanoma). Kind of test: Cancer cell lines assay (Alamar Blue, day 5), C32. As to conditions: Homo sapiens, C32 cells. On the procedure:
as §1, §2, §4

Usually IC50 stands for the concentration that gives 50% inhibition. One may read the inhibition as the share of the control response that was lost under treatment. For the compound `CC(=O)NC[C@H]1CN(c2ccc(N3CCOCC3)c(F)c2)C(=O)O1` [Linezolid], the IC50 in test [1] (120 h, HT-144 (Melanoma) cells, Alamar Blue on day 5, read-out: Linezolid IC50) is 500 µM; in test [3] (A 172, 120 h, A172 (Malignant glioma) cells, Alamar Blue on day 5, read-out: Linezolid IC50), 600 to 700 µM. Further, the inhibition at 1000 µM was 90.7% in test [1] (HT-144 cells, Linezolid concentration 1 mM, negative control DMSO, p 0.00250, read-out: Linezolid % Maximum inhibition relative to negative control); 81.8% in test [3] (A 172, A172 cells, Linezolid concentration 1 mM, negative control DMSO, p 6 × 10^−6, read-out: Linezolid % Maximum inhibition relative to negative control); 26.1% in test [4] (Linezolid concentration 1 mM, negative control DMSO, p 0.000720, read-out: Linezolid % Maximum inhibition relative to negative control). Moreover, the inhibition at 412 µM in test [2] was 14.5%.

Turning to `CC(=O)O[C@H]1C(=O)[C@@]2(C)[C@H]([C@H](OC(=O)c3ccccc3)[C@]3(O)C[C@H](OC(=O)[C@H](O)[C@@H](NC(=O)c4ccccc4)c4ccccc4)C(C)=C1C3(C)C)[C@]1(OC(C)=O)CO[C@@H]1C[C@@H]2O` [Paclitaxel], the inhibition at 0.1 µM in test [1] (HT-144 cells, 0.1 μM paclitaxel (positive control), read-out: Paclitaxel % Maximum inhibition relative to negative control) came out at 86.9%; in test [3] (A 172, A172 cells, 0.1 μM paclitaxel (positive control), read-out: Paclitaxel % Maximum inhibition relative to negative control), 92.9%; in test [4] (0.1 μM paclitaxel (positive control), read-out: Paclitaxel % Maximum inhibition relative to negative control) it was 90.8%.
